Patent EP0455830B1, “MEDICINE CONTAINING THIAZINE DIOXIDE DERIVATIVE” (NIPPON HYPOX LABORATORIES INCORPORATED, priority 1989, dated 1991)
Where “and” joins values, the source holds several entries; their conditions need not be identical. Equal entries are not always repeated. Where two headings read alike, the source gives them in different places.

Key:
[1] = system: vomiting induced by the cisplatin; test: Effect on inhibition of vomiting caused by cisplatin -2 (Example 7), manifestation ratio; type: in vivo, mongrel dogs
Description: Effect on inhibition of vomiting caused by cisplatin -2
Female and male mongrel dogs weiging about 10 kg were administered intravenously with 0.4 mg/kg/day of cisplatin dissolved in a physiological saline solution for the initial 3 days and with 0.8 mg/kg/day of cisplatin for the subsequent 4 days to examine the effects of substances to be tested on the basis of a manifestation ratio, as an index, of vomiting induced by the cisplatin.
HX-1920, which was a substance to be tested, was dissolved in a 10 % Nikkol solution (Nikkol: trade name, dissolving aid manufactured by Nikko Chemical Co., Ltd.) containing 1 % NaHCO₃, and put into gelatin soft capsules, and the capsules were administered orally 30 minutes before the administration of cisplatin.
In addition, as a known domperidone type antiemetic, a 1 % Nauzelin powder was put into gelatin soft capsules, and administered orally 30 minutes before the administration of cisplatin.

[2] = system: nephritis caused by cisplatin; test: Effect on nephritis caused by cisplatin - 2 (Example 3); type: in vivo, female Fischer rats; details: with cisplatin 1 mg/kg hypodermically for 8 days, 24 h after final administration
Description: Effect on nephritis caused by cisplatin - 2
Six female Fischer rats (8 weeks of age) per group were administered hypodermically with 1 mg/kg of cisplatin for 8 days, and at the same time, HX-1920 was administered orally in a dose of 10 mg or 100 mg/kg. In both the administrations, the blood urea nitrogen (BUN) and creatinine measured 24 hours after the final administration tended to show lower values. […]

[3] = system: nephritis caused by cisplatin; test: Effect on nephritis caused by cisplatin - 4 (Example 5); type: in vivo, female F344 rats; details: for BUN / Creatinine: cisplatin 1 mg/kg hypodermically for 8 days, 24 h after final cisplatin; for inhibition at 100 mg/kg: Rattus norvegicus, po, 100 mg/kg p.o., inhibition of the cisplatin-induced increase
Description: Effect on nephritis caused by cisplatin - 4
Six to seven female F344 rats per group weighing about 150 g, per group, were administered hypodermically in the dorsal portion with 1 mg/kg of cisplatin dissolved in a physiological saline solution once a day over 8 days. Twenty-four hours after the final administration of the cisplatin, the rats were anesthtized with ether, and the blood was collected from each rat, centrifuged and measured for blood urea nitrogen (BUN) and creatinine with an autoanalyzer Olympus AU-550.
HX-1920 which was a substance to be tested was dissolved in a 2.5 % NaHCO₃, and the resultant solution was administered orally in a dose of 10 or 100 mg/kg over 8 days immediately before the administration of the cisplatin.
The increases in BUN and creatinine by the administration of cisplatin are considered to be characteristics in acute renal failure. […]

[4] = system: nephritis caused by cisplatin; test: Effect on nephritis caused by cisplatin - 3 (Example 4), BUN and survival; type: in vivo, male ICR rats; details: with cisplatin 3 mg/kg subcutaneously for 4 days
Description: Effect on nephritis caused by cisplatin - 3
Ten male ICR rats (8 weeks of age) per group were administered subcutaneously with 3 mg/kg of cisplatin for 4 days, and at the same, HX-1920 was orally administered in a dose of 100 mg/kg. Sixteen hours after the final administration, 5 rats of each group were measured for blood urea nitrogen (BUN), and the survival ratios of the remaining 5 rats of each group for the subsequent 5 days were examined. […] Thus, the effect of the administration of HX-1920 on the alleviation of renal dysfunctions was observed. […]

[5] = system: stomach contraction caused by cisplatin; test: Effect on inhibition of stomach contraction caused by cisplatin (Example 8); type: in vivo, female Fischer rats; details: with cisplatin 2 mg/kg subcutaneously once a day for 4 days
Description: Effect on inhibition of stomach contraction caused by cisplatin
Cisplatin in a dose of 2 mg/kg was administered subcutaneously into female Fischer rats (5 weeks of age) once a day for 4 days, and at the same time, HX-1920 was administered intraperitoneally or orally.
[…] For the cisplatin non-administered group and the cisplatin administered vehicle control group, 1 ml/day of a 1 % gum arabic solution was administered per rat.

[6] = system: vomiting caused by cisplatin; test: Effect on inhibition of vomiting caused by cisplatin -1 (Example 6), degree of vomiting per dog; type: in vivo; parameters: key: III: Extreme; II: Moderate; I: Slight; 0: No vomiting; details: 20 mg/kg p.o. (capsule) 30 min before i.v. cisplatin; individual dogs
Description: Effect on inhibition of vomiting caused by cisplatin -1
Five dogs (7 - 12.5 kg) per group were admininistered intravenously with 0.4 mg/kg of cisplatin per day for the initial 3 days and with 0.8 mg/kg of cisplatin per day for the subsequent 1 day. HX-1920 in a dose of 20 mg/kg was encapsulated and administered 30 minutes before the intravenous administration of cisplatin. Separately, Nauzelin (trade name, manufactured by Kyowa Hakko Kogyo Co., Ltd.), which was a domperidone type antiemetic, was administered to another group of five dogs in a dose of 2 mg/kg for 7 days. […] The vomiting was cured after 24 hours. However, the same symptom was repeatedly manifested when cisplatin was administered. […] Thus, the effect of HX-1920 on the alleviation of the vomit-inducing activity of the carcinostatic cisplatin was evident.

[7] = system: nephritis caused by cisplatin; test: Effect on nephritis caused by cisplatin -1 (Example 2); type: in vivo, female Fischer rats; details: with cisplatin 2 mg/kg hypodermically for 5 days, 24 h after final administration
Description: Effect on nephritis caused by cisplatin -1
Five female Fischer rats (5 weeks of age) per group were administered hypodermically with 2 mg/kg of cisplatin for 5 days, and at the same time, HX-1920 was administered orally in a dose of 50 mg or 150 mg/kg, or administered intraperitoneally in a dose of 10 or 30 mg/kg. Twenty-four hours after the final administration, the rats were sacrificed, and their blood urea nitrogen (BUN) and creatinine were measured.

[8] = 20 mg/kg orally in capsules 30 min before i.v. cisplatin (0.4 mg/kg/day 3 days, then 0.8 mg/kg/day 4 days)
[9] = 10 mg/kg/day p.o. in 2.5 % NaHCO3 over 8 days
[10] = 100 mg/kg/day p.o. in 2.5 % NaHCO3 over 8 days

CN1C(C(=O)Nc2ccccc2-c2nnn[nH]2)=C(O)c2ccccc2S1(=O)=O [HX-1920, 4-hydroxy-2-methyl-N-(2-(1H-tetrazol-5-yl)phenyl)2H-1,2-benzothiazine-3-carboxamide-1,1-dioxide]
Vomiting manifestation ratio (%) 4th day [1, 8]: 29.4% | Vomiting manifestation ratio (%) 5th day [1, 8]: 23.5% | Vomiting manifestation ratio (%) 6th day [1, 8]: 29.4% | Vomiting manifestation ratio (%) 7th day [1, 8]: 52.9% | manifestation of vomiting (in words) ([1]; 20 mg/kg orally, compared with the vehicle control group): clearly inhibited | BUN ([2]; 10 mg/kg/day p.o.): 51.1 ± 16.5 mg/dL | Creatinine ([2]; 10 mg/kg/day p.o.): 1.15 ± 0.29 mg/dL | BUN ([2]; 100 mg/kg/day p.o.): 38.0 ± 6.4 mg/dL | Creatinine ([2]; 100 mg/kg/day p.o.): 0.96 ± 0.05 mg/dL | inhibition activity against increase in BUN and creatinine (in words) ([3]; 10 mg/kg p.o.): did not exhibit clear inhibition activity | BUN [3, 9]: 51.1 ± 16.5 mg/dL | Creatinine [3, 9]: 1.15 ± 0.29 mg/dL | BUN [3, 10]: 38.0 ± 6.1 mg/dL | Creatinine [3, 10]: 0.96 ± 0.05 mg/dL | inhibition at 100 mg/kg ([3]; read-out: inhibition activity in BUN): 38% | inhibition at 100 mg/kg ([3]; read-out: inhibition activity in creatinine): 25% | survival (in words) ([4]; 100 mg/kg p.o., subsequent 5 days, all vehicle control rats died): all of the five rats of the HX-1920 administered group survived | BUN ([4]; 100 mg/kg/day p.o., 16 h after final administration): 78.3 ± 45.7 mg/dL | Survival ratio ([4]; 100 mg/kg/day p.o., survival over the subsequent 5 days): 100% | Diameter of center of stomach ([5]; 10 mg/kg i.p.): 0.97±0.07 mm | Diameter of center of stomach ([5]; 30 mg/kg i.p.): 1.18±0.07 mm | Diameter of center of stomach ([5]; 150 mg/kg p.o.): 1.14±0.07 mm | Degree of vomiting 5th day [6]: 0 (4×) and I | Degree of vomiting 6th day [6]: I (2×) and 0 (3×) | Degree of vomiting 7th day [6]: I (3×) and 0 (2×) | BUN ([7]; 10 mg/kg/day i.p.): 102.8 ± 29.5 mg/dL | Creatinine ([7]; 10 mg/kg/day i.p.): 0.70 ± 0.04 mg/dL | BUN ([7]; 30 mg/kg/day i.p.): 69.6 ± 22.2 mg/dL | Creatinine ([7]; 30 mg/kg/day i.p.): 0.65 ± 0.04 mg/dL | BUN ([7]; 50 mg/kg/day p.o.): 138.1 ± 47.6 mg/dL | Creatinine ([7]; 50 mg/kg/day p.o.): 0.83 ± 0.31 mg/dL | BUN ([7]; 150 mg/kg/day p.o.): 91.1 ± 58.6 mg/dL | Creatinine ([7]; 150 mg/kg/day p.o.): 0.65 ± 0.11 mg/dL
